# Test results: patent US20080214557A1, “METHOD FOR PREPARATION OF PHARMACEUTICAL COMPOSITION HAVING IMPROVED DISINTEGRATABILITY AND PHARMACEUTICAL COMPOSITION MANUFACTURED BY SAME METHOD” (Eisai R&D Management Co., Ltd., priority 2005, published 2008)
# Assay: pH of 2.5 wt % aqueous solutions of the salts in purified water
# Format: physicochemical
# Conditions: 2.5 wt % aqueous solution in purified water
row,Molecule,pH of 2.5% salt solution
1,"[Ca+2].[Cl-].[Cl-] [CaCl2(anhydrous), anhydrous calcium chloride]",8.40
2,"NCC(=O)O [Glycine, glycine]",6.12
3,"[Cl-].[K+] [KCl, potassium chloride]",6.05
4,"Cl.N [NH4Cl, ammonium chloride]",4.97
5,"O=C([O-])[O-].[Na+].[Na+] [Na2CO3(anhydrous), anhydrous sodium carbonate]",11.31
6,"O=P([O-])([O-])O.[Na+].[Na+] [Na2HPO4(anhydrous), anhydrous disodium hydrogen phosphate]",8.90
7,"[Cl-].[Na+] [NaCl, sodium chloride]",5.69
8,"O=C([O-])O.[Na+] [NaHCO3(anhydrous), anhydrous sodium bicarbonate]",8.09
9,anhydrous sodium acetate [CH3CO2Na(anhydrous)],8.25
